Laboratory results published in patent US12528774B2, “Thiosemicarbazone compounds and uses thereof” (The Regents of the University of California, priority 2019, dated 2026).

Assays:
MIAPACA2 cells = assay: ROS measurements (CM-H2DCFDA, MitoSOX); assay type: cell-based, human; conditions: 24 h
Protocol: FIGS. 2A-2I. FIG. 2A: representative immunoblots of MIAPACA2 PDAC cells treated as indicated for 24h. FIGS. 2B-2C: reactive oxygen species (ROS) measurement using CM-H2DCFDA staining after HCT13 (25 nM)+Cu(II) (20 μM) treatment for 24h; mean fluorescence intensity (MFI); mean±SD, n=2, Student t-test, ***P<0.001. FIG. 2D-2E: mitochondrial ROS detection using MitoSOX staining in MIAPACA2 PDAC cells treated with HCT-13 (25 nM)+Cu(II) (20 μM) for 24h; mean±SD, n=2, Student t-test, ***P<0.001. FIG. 2F: oxygen consumption rate (OCR) of MIAPACA2 PDAC cells treated with HCT-13 (25 nM)+Cu(II) (20 μM). FIG. 2G: OCR of isolated mitochondria measured with or without HCT-13 (25 nM)+Cu(II) (20 μM). FIG. 2H: viability of 143 BTK parental (wild type, WT) and po cells after 48 h of treatment with the indicated HCT-13 concentrations+Cu(II) (20 μM) treatment, assessed with trypan blue staining; mean±SD, n=2, Student t-test, ***P<0.001. […]
ROS Measurements: Cellular ROS measurement was assayed with CM-H2DCFDA staining after treatment according to manufacturer's instructions (Reactive Oxygen Species (ROS) Detection Reagents, Invitrogen, #D399). […] The samples were analyzed using flow cytometry.
Mitochondrial ROS was measured using MitoSOX staining according to manufacturer's instructions (MitoSOX, Invitrogen, #M36008). […]
ROS Measurements. […] The samples were analyzed using flow cytometry. […]

[1] = system: panel of PDAC, SCLC, and PC cancer models; assay: Proliferation assay (CellTiter-Glo) in panel of PDAC, SCLC and PC cancer models; assay type: cell-based, human and mouse; conditions: media with 20 μM CuCl2, 72 h
Excerpt: FIG. 1A: IC50 values in a panel of human and mouse prostate cancer (PC)(cell lines CF-2, LNCaP, 22Rv1, RM-1, MyC CaP); small cell lung carcinoma (SCLC)(cell lines NCI-H1963, NCI-H146, NCI-H526); pancreatic ductal adenocarcinoma (PDAC)(CFPAC1, SW1990, HS766T, PANC0203, PANC0813, ASPC1, HPAFII, PATU8902, PANC0327, PANC1, YAPC, L36PL, XWR200, HUPT4, A13A, SUIT2, DAN-G, BxPC3, HPAC, PSN1, SU8686, KP4662, MIAPACA2, PATU8988T); and leukemia (cell lines KG-1, TF-1, Jurkat, MOLT-4, p185-R, MV4-11) models treated with HCT13+Cu(II) (20 μM) for 72 h measured by CellTiterGlo. […] (mean±SD, n=2, one-way ANOVA corrected for multiple comparisons by Bonferroni adjustment, * P<0.05; **P<0.01; ***P<0.001).
Serum copper levels are elevated (>20 μM) in individuals with solid tumor types such as pancreatic ductal adenocarcinoma (PDAC), small cell lung carcinoma (SCLC), and prostate cancer (PC). (Refs. 43-48). These cancers rely upon elevated copper levels to sustain growth, making this transition metal a viable target for therapeutic modulation. (Ref 34). […]
Proliferation assay: Cells were plated in 384-well plates (500 cells/well for adherent cell lines in 30 μl volume). […] Following 72 h incubation, ATP content was measured using CellTiter-Glo reagent according to manufacturer's instructions (Promega, CellTiter-Glo Luminescent Cell Viability Assay), and analyzed by SpectraMax luminometer (Molecular Devices). […]

CN(C)C(=S)N/N=C/c1nccc2cc(F)ccc12 (mixture of isomers) [HCT13, (E)-2-((6-Fluoroisoquinolin-1-yl)methylene)-N,N-dimethylhydrazine-1-carbothioamide and (Z)-2-((6-Fluoroisoquinolin-1-yl)methylene)-N,N-dimethylhydrazine-1-carbothioamide]
ROS generation (CM-H2DCFDA staining) (MIAPACA2 cells; HCT13 25 nM + Cu(II) 20 μM): induced ROS generation | mitochondrial ROS (MitoSOX) (MIAPACA2 cells; HCT-13 25 nM + Cu(II) 20 μM): also observed in the mitochondria | +Cu IC90 range across panel [1]: nanomolar | IC90 ([1]; read-out: +Cu IC90 range across panel): 1 to 200 nM
